Test results as given in ChEMBL document CHEMBL3632547, “Discovery of 3,5-substituted 6-azaindazoles as potent pan-Pim inhibitors” (Bioorg Med Chem Lett, 2015).

Assays:
[1] = target: Serine/threonine-protein kinase pim-2 (Homo sapiens, UniProt Q9P1W9)
[2] = target: Serine/threonine-protein kinase pim-3 (Homo sapiens, UniProt Q86V86)
[3] = target: Serine/threonine-protein kinase pim-1 (Homo sapiens, UniProt P11309)
[4] = Cytotoxicity against wild type interleukin-3 dependent mouse BA/F3 cells after 72 hrs by CellTiter-Glo assay; assay type: functional, cell-based; details: BaF3, 72 h
[5] = Cytotoxicity against interleukin-3 independent mouse BA/F3 cells expressing PIM1 after 72 hrs by CellTiter-Glo assay; assay type: functional, cell-based; details: BaF3, 72 h
BaF3 = assay: Ratio of IC50 for wild type interleukin-3 dependent mouse BA/F3 cells to IC50 for interleukin-3 independent mouse BA/F3 cells expressing PIM1; assay type: functional
[6] = Cytotoxicity against human MM1S cells after 72 hrs by CellTiter-Glo assay; assay type: functional, cell-based; details: MM1.S
[7] = Plasma clearance in rat; assay type: ADME, organism-based
[8] = Oral bioavailability in rat; assay type: ADME, organism-based; details: in vivo
[9] = Plasma protein binding in rat; assay type: ADME, cell-free; details: read-out: PPB (converted)
[10] = Intrinsic clearance from rat liver microsomes; assay type: ADME; details: read-out: CLH
[11] = Apparent permeability from apical to basolateral side in MDCK cells; assay type: ADME, cell-based, Canis lupus familiaris; details: dog
[12] = Efflux ratio of apparent permeability from basolateral to apical over apical to basolateral side in MDCK cells; assay type: ADME, cell-based, Canis lupus familiaris; details: dog

Sequence of Serine/threonine-protein kinase pim-1 (P11309 whole entry): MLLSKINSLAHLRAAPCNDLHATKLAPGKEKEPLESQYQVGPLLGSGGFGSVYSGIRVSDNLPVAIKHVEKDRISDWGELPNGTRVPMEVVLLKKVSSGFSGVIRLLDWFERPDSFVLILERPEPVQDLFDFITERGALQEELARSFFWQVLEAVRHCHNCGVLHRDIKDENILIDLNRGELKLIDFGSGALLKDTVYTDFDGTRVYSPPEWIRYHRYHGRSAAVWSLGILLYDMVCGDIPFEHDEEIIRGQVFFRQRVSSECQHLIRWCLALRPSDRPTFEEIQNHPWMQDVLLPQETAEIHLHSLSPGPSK
Sequence of Serine/threonine-protein kinase pim-2 (Q9P1W9 whole entry): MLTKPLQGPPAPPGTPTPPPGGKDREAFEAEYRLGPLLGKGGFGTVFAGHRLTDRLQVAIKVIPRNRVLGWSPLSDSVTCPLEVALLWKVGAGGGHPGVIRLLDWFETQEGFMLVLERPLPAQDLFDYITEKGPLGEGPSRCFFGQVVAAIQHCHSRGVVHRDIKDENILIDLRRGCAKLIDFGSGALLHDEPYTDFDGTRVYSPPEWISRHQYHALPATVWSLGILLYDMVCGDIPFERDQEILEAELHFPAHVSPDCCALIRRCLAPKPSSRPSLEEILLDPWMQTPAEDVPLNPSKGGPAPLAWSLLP

Ki [1] [nM] | Ki [2] [nM] | Ki [3] [nM] | SMILES | other results
6.2 | 0.16 |  | Cn1cc(-c2cc3c(-c4cccc(O[C@@H]5CCCNC5)n4)n[nH]c3cn2)cn1 | 
0.72 | 0.021 |  | Cn1cc(-c2cc3c(-c4cccc(N5CCC[C@@H](N)C5)n4)n[nH]c3cn2)cn1 | 
0.43 | 0.015 | 0.035 | Cn1cc(-c2cc3c(-c4cccc(N5CC[C@@H](N)C5)n4)n[nH]c3cn2)cn1 | 
0.26 | 0.015 |  | Cn1cc(-c2cc3c(-c4cccc(N5CCC[C@H](N)C5)n4)n[nH]c3cn2)cn1 | 
1.25 | 0.29 |  | Cn1cc(-c2cc3c(-c4cccc(N5CCC[C@@H](N)C5)c4)n[nH]c3cn2)cn1 | 
0.088 | 0.006 |  | Cc1ccc(-c2n[nH]c3cnc(-c4cnn(C)c4)cc23)nc1N1CCC[C@H](N)C1 | 
0.473 | 0.041 |  | CCn1cc(-c2cc3c(-c4cccc(N5CCNCC5)n4)n[nH]c3cn2)cn1 | IC50 [4]: 5400 nM; IC50 [5]: 77 nM; Ratio IC50 (BaF3): 70; IC50 [6]: 640 nM; clearance [7]: 14 mL/min/kg; bioavailability [8]: 1%; fraction unbound [9]: 0.022; CLint scaled [10]: 150 mL/min/kg; Papp A→B [11]: 0.5 ×10⁻⁶ cm/s; efflux ratio [12]: 51
82 |  | 8.5 | c1cc(-c2n[nH]c3cnc(C4CCCO4)cc23)nc(N2CCNCC2)c1 (stereo unspecified) | 
26 | 1 |  | c1cc(-c2n[nH]c3cnc(C4CCCOC4)cc23)nc(N2CCNCC2)c1 (stereo unspecified) | 
17 | 1.4 |  | O=C1CN(c2cc3c(-c4cccc(N5CCNCC5)n4)n[nH]c3cn2)CCN1 | 
14 | 4.4 |  | c1cc(-c2n[nH]c3cnc(N4CCOCC4)cc23)nc(N2CCNCC2)c1 | 
48 | 3.7 |  | Cn1cc(-c2cc3c(-c4ccccn4)n[nH]c3cn2)cn1 | 
0.17 | 0.013 | 0.02 | Cn1cc(-c2cc3c(-c4cccc(N5CCCNCC5)n4)n[nH]c3cn2)cn1 | 
2.2 | 0.12 |  | Cn1cc(-c2cc3c(-c4cccc(C5CCNCC5)n4)n[nH]c3cn2)cn1 | 
0.145 | 0.07 |  | CCn1cncc(-c2cc3c(-c4cccc(N5CCNCC5)n4)n[nH]c3cn2)c1=O | 
0.58 | 0.017 |  | Cn1cc(-c2cc3c(-c4cccc(N5CCNCC5)n4)n[nH]c3cn2)cn1 | 
0.127 | 0.013 |  | N#CCn1cc(-c2cc3c(-c4cccc(N5CCNCC5)n4)n[nH]c3cn2)cn1 | 
0.253 | 0.016 |  | c1cc(-c2n[nH]c3cnc(-c4cnn(CC5CC5)c4)cc23)nc(N2CCNCC2)c1 | 
5.4 | 0.65 |  | c1cc(-c2n[nH]c3cnc(-n4ccnc4)cc23)nc(N2CCNCC2)c1 | 
1100 | 115 |  | NC(=O)Cc1cc2c(-c3cccc(N4CCNCC4)n3)n[nH]c2cn1 | 

Ki [1] [nM] | Ki [2] [nM] | Ki [3] [nM] | SMILES | other results
1.1 | 0.68 |  | NC(=O)Nc1cc2c(-c3cccc(N4CCNCC4)n3)n[nH]c2cn1 | 
33 | 3.3 |  | CN1C(=O)CN(c2cc3c(-c4cccc(N5CCNCC5)n4)n[nH]c3cn2)C1=O | 
1.7 | 0.11 | 3.4 | Fc1ccccc1-c1n[nH]c2cnc(-c3cnccc3O[C@@H]3CCCNC3)cc12 | 
170 | 9 | 6 | Cc1n[nH]c2cnc(-c3cncc(N4CCC(N)CC4)n3)cc12 | 
3 | 0.1 | 0.1 | NC1CCN(c2cncc(-c3cc4c(-c5ccccc5F)n[nH]c4cn3)n2)CC1 | 
3 | 0.2 | 0.3 | NCCNc1cccc(-c2n[nH]c3cnc(-c4cccnc4)cc23)n1 | 
0.5 | 0.01 | 0.04 | c1cncc(-c2cc3c(-c4cccc(N5CCNCC5)n4)n[nH]c3cn2)c1 | 
0.3 | 0.037 |  | Cc1cncc(-c2cc3c(-c4cccc(N5CCNCC5)n4)n[nH]c3cn2)c1 | 
0.049 | 0.01 |  | Cc1cncc(-c2cc3c(-c4cccc(N5CCNCC5)n4)n[nH]c3cn2)n1 | 
6000 | 1800 | 1300 | c1cncc(-c2cc3cn[nH]c3cn2)c1 | 
15000 | 2900 | 3300 | O=C(Nc1cn[nH]c1)c1cccnc1 | 
800 | 300 | 200 | Cc1n[nH]c2cnc(-c3cccnc3)cc12 | 
3900 | 1500 | 800 | Cc1c[nH]c2cnc(-c3cccnc3)cc12 | 
900 | 400 |  | Cc1n[nH]c2cnc(-c3cn[nH]c3)cc12 | 
2700 | 3100 | 3200 | Cc1n[nH]c2ccc(-c3cn[nH]c3)cc12 | 
50 | 5 | 10 | c1ccc(-c2n[nH]c3cnc(-c4cccnc4)cc23)cc1 | 
70 |  | 10 | c1ccc(-c2n[nH]c3cnc(-c4cccnc4)cc23)nc1 | 
8300 | 5000 |  | Cc1n[nH]c2cnc(-c3cnccc3N3CCC[C@H](N)C3)cc12 | 
35 | 6 |  | N[C@H]1CCCN(c2ccncc2-c2cc3c(-c4ccccc4F)n[nH]c3cn2)C1 | 
